According to PubChem BioAssay (NCI):
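Tested at 5 concentrations; 48 h exposure; 96-well plates; endpoints linearly interpolated, else capped at highest concentration. TGI marks complete inhibition of growth.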

Columns and labels:
Assay in all cases: NCI tumour cell line growth inhibition, 48 h
MOLT-4 leukemia = system: MOLT-4 leukemia
HCT-15 colon = system: HCT-15 colon
A549 NSCLC = system: A549 NSCLC
CCRF-CEM leukemia = system: CCRF-CEM leukemia
SN12C renal = system: SN12C renal
HL-60(TB) leukemia = system: HL-60(TB) leukemia
OVCAR-5 ovarian = system: OVCAR-5 ovarian
MDA-MB-231 breast = system: MDA-MB-231 breast
MDA-N = system: MDA-N
NCI-H23 lung = system: NCI-H23 lung
PC-3 prostate = system: PC-3 prostate
M14 melanoma = system: M14 melanoma
DU-145 prostate = system: DU-145 prostate
MCF7 breast = system: MCF7 breast
K-562 leukemia = system: K-562 leukemia
SK-MEL-2 melanoma = system: SK-MEL-2 melanoma
LOX IMVI melanoma = system: LOX IMVI melanoma
COLO 205 colon = system: COLO 205 colon
EKVX NSCLC = system: EKVX NSCLC
SF-268 CNS = system: SF-268 CNS
SR leukemia = system: SR leukemia
OVCAR-4 ovarian = system: OVCAR-4 ovarian
TK-10 renal = system: TK-10 renal
786-0 renal = system: 786-0 renal
RXF 393 renal = system: RXF 393 renal
OVCAR-3 ovarian = system: OVCAR-3 ovarian
MALME-3M melanoma = system: MALME-3M melanoma
UO-31 renal = system: UO-31 renal
NCI-H522 lung = system: NCI-H522 lung
SNB-19 CNS = system: SNB-19 CNS
CAKI-1 renal = system: CAKI-1 renal
U251 CNS = system: U251 CNS
SW-620 colon = system: SW-620 colon
HOP-62 NSCLC = system: HOP-62 NSCLC
SK-MEL-28 melanoma = system: SK-MEL-28 melanoma
SNB-75 CNS = system: SNB-75 CNS
HOP-92 NSCLC = system: HOP-92 NSCLC
HT29 colon = system: HT29 colon
ACHN renal = system: ACHN renal
RPMI-8226 leukemia = system: RPMI-8226 leukemia
SF-295 CNS = system: SF-295 CNS
NCI-H226 lung = system: NCI-H226 lung
KM12 colon = system: KM12 colon
UACC-257 melanoma = system: UACC-257 melanoma
OVCAR-8 ovarian = system: OVCAR-8 ovarian
MDA-MB-435 = system: MDA-MB-435
HS 578T breast = system: HS 578T breast
HCC-2998 colon = system: HCC-2998 colon
SF-539 CNS = system: SF-539 CNS
BT-549 breast = system: BT-549 breast
IGROV1 ovarian = system: IGROV1 ovarian
HCT-116 colon = system: HCT-116 colon
SK-MEL-5 melanoma = system: SK-MEL-5 melanoma
NCI-H460 lung = system: NCI-H460 lung
SK-OV-3 ovarian = system: SK-OV-3 ovarian
A498 renal = system: A498 renal
UACC-62 melanoma = system: UACC-62 melanoma
NCI/ADR-RES ovarian = system: NCI/ADR-RES ovarian

Measured: TGI

CC(=O)OCCOCn1c2c(c(=O)[nH]c1=O)CCC2
not listed: NCI-H460 lung | SK-OV-3 ovarian | A498 renal | UACC-62 melanoma | NCI/ADR-RES ovarian
> 100 µM: all other assays above

CC(=O)NC(CC(C)C)C(=O)NC(CC(C)C)C(=O)NC(C=O)CCCN=C(N)N (stereo not drawn)
not listed: HL-60(TB) leukemia | RXF 393 renal | HS 578T breast
> 100 µM: all other assays above
